The values that follow come from patent publication US8288334B2, “Peptides for wound healing” (Gene Signal International SA, priority 2010, dated 2012).

The test system of assay [1] is trans-dermal wounds. Description: wound healing of trans-dermal wounds in mice after topical application. It is filed as in vivo. The settings on record: for wound healing compared with Vehicle treated wounds: 0.5 mg/ml (5 mg/kg), mice; for % healing of wounds, day 1 post treatment: day 1, 0.5 mg/ml (5 mg/kg), vehicle 16.9%; for % healing of wounds, day 1 post treatment / % healing of wounds, day 2 post treatment / % healing of wounds, day 3 post treatment / % healing of wounds, day 4 post treatment: 5 mm punch wounds; for % healing of wounds, day 2 post treatment: day 2, 0.5 mg/ml (5 mg/kg), vehicle 21.2%; for % healing of wounds, day 3 post treatment: day 3, 0.5 mg/ml (5 mg/kg), vehicle 45.9%; for % healing of wounds, day 4 post treatment: day 4, 0.5 mg/ml (5 mg/kg), vehicle 57.5%. Here is the method:
The vehicle (Batch A) was administered by topical application at a standardized volume of 10 ml/kg for all applications. The peptides of the invention were administered by topical application at the concentration of 0.5 mg/ml in the vehicle. The protocols of treatment were as it follows: • Group 1: (Batch A, Vehicle): 1 topical application 10 minutes after wounding • Group 2: (Peptide 7, 0.5 mg/ml): 1 topical application 10 minutes after wounding • Group 3: (Peptide 10, 0.5 mg/ml): 1 topical application 10 minutes after wounding • Group 4: (Peptide 11, 0.5 mg/ml): 1 topical application 10 minutes after wounding • Group 5: (Peptide 7B, 0.5 mg/ml): 1 topical application 10 minutes after wounding. • Group 6: (Peptide 7A, 0.5 mg/ml): 1 topical application 10 minutes after wounding. • Group 7: (Peptide 7C, 0.5 mg/ml): 1 topical application 10 minutes after wounding. Wounding
Healthy female BALBC Swiss mice were anesthetized by IP injection of Ketamine-Xylazine (80 mg/kg-12 mg/kg; Ref. K-113, Sigma, France). Two trans-dermal wounds, each of 5 mm in width and about 1 to 2 mm in depth were realized in the right and the left flanks of each mouse using 5 mm punch.
At D1, and 10 min post-injury of the animals, the mice were randomized into 7 groups of 3 mice each.
All treatments were realized by topical application at the frequency of 1 topical application/day, for 4 days. Animals of group 1 were treated with the vehicle solution (Batch A). Animals of groups 2 to 7 were treated with the indicated peptide at a dose of 5 mg/kg.

The subject of assay [2] is human microvascular endothelial cells (HMEC). Nature of the assay: in vitro angiogenesis assay (Matrigel, endothelial tube formation). Type of assay: cell-based. The note with it: 400 μg/ml final concentration of each peptide, images at 6 h post incubation. Here is the method: Angiogenesis of human microvascular endothelial cells (HMEC) was induced in vitro using a Matrigel assay described by Grant et al (1989, Cell, 1989; 58:933). This method is based on the differentiation of endothelial cells to form capillary structures on a Matrigel Matrix. Matrigel is prepared the Engelbreth-Holm-Swarm (EHS) mouse tumor, which represents a complex mixture of basement membrane proteins including type IV collagen, entactin, proteo-heparan sulfate and other growth factors.
Briefly, 250 μl of Matrigel were transferred to each well of a 24-well culture plate and incubated at 37° C. for 30 min to allow for the matrix solution to solidify. HMEC grown in complete growth medium EGM-2MV were harvested by trypsin, suspended in the same growth medium and 500 μl containing 70 000 cells were added on top of the solidified Matrigel in each well and in the presence or absence of protein. Cells were maintained in a humidified atmosphere air containing 5% CO2 at 37° C. for 18-24 hrs. Endothelial tube formation was observed and photographed under an inverted light microscope.
The results of the in vitro angiogenesis assay were presented in FIG. 1, using HMEC and 400 μg/ml final concentration of each peptide. Images were taken at 6 h post incubation.

Assay [3] concerns VEGFA protein. Description: VEGFA protein by human VEGFA sandwich ELISA in HMEC culture medium. It is filed as cell-based. The note with it: HMEC incubated with increasing concentrations of peptide. Here is the method:
Serum-deprived HMEC were incubated with different concentrations of peptide 7 or peptide 10 or vehicle […]. After 3 washes with ice-cold PBS, cells were suspended with the protein extraction buffer (PEB) (20 mM Tris-HCl pH 7.5, 150 mM NaCl, 1 mM EDTA, 1 mM EGTA, 1% Triton, 25 mM sodium pyrophosphate, 1 mM β-glycero-phosphate, 1 mM Na3Vo4, 1 μg/ml leupeptine, 1 μM PMSF). The protein content was measured by Bradford. VEGFA concentration in the culture medium or in the extracts was determined by human VEGFA Sandwich ELISA kit (Cell Signaling technology) according to the manufacturer's instructions.
A general note: In an ELISA, binding on a coated surface is turned into a signal by an enzyme label.

For assay [4], the system named is Akt (phosphoserine 473 pAkt). Description: activation status of protein kinase B (pAkt) by western-blot in HMEC. The note with it: 400 μg/ml, 10 min and 30 min post incubation, immunoblot. Type of assay: cell-based, human. Here is the method: The activation status of pAkt was determined by western-blot using an anti-phosphoserine 473 pAkt antibody, and anti-GAPDH mAb as internal standard.
The status of Akt in the HMEC following incubation with either peptide 7 or peptide 10 was investigated.
On the technique in general: A western blot detects proteins with antibodies after separation by electrophoresis.

In assay [5] the test system is MAPK (Erk1 and 2). Description: activation status of MAPK (pErk1/2) by western-blot in HMEC. It is filed as cell-based, human. The settings on record: immunoblot anti-activated MAPK (pErk1/2). Here is the method:
The activation status of MAPK was determined by western-blot using an anti-activated MAPK (pErk1/2) antibody, and anti-GAPDH mAb as internal standard.
We have also investigated the status of the mitogen activated protein kinase (MAPK), as it is well established that it represents another cascade of intracellular signaling could be implicated in the regulation of VEGF expression.

With ELDLQASL [Peptide 7B], the “wound healing compared with Vehicle treated wounds” value in assay [1] was “healed faster than the wounds treated with Vehicle”.
For the sequence QSQKVPRQVQS [Peptide 11], in assay [2], the “in vitro angiogenesis-inducing activity” value was “strong in vitro angiogenesis-inducing activity”. In assay [1], the “wound healing compared with Vehicle treated wounds” value was “healed faster than the wounds treated with Vehicle”.
On to RRTTQECPVRTSLD [Peptide 7C], for which, in assay [1], the “wound healing compared with Vehicle treated wounds” value is “healed faster than the wounds treated with Vehicle”; the “% healing of wounds, day 1 post treatment” value was determined as 39.4%; the “% healing of wounds, day 2 post treatment” value is listed as 55.3%; the “% healing of wounds, day 3 post treatment” value was 58.8%. The “% healing of wounds, day 4 post treatment” value in assay [1] is given as 68.2%.
Taken in the same sequence, the figures for TQECPVRTSLD [Peptide 7A] were “healed faster than the wounds treated with Vehicle”, 27.4%, 44.7%, 45.1% and 58.8%.
For TQECPVRTSLDRELDLQASL [Peptide 7], in assay [2], the “in vitro angiogenesis-inducing activity” value is reported as “strong in vitro angiogenesis-inducing activity”. Moreover, the “wound healing compared with Vehicle treated wounds” value in assay [1] is listed as “healed faster than the wounds treated with Vehicle”. In assay [3], the “VEGF protein within the culture medium, concentration dependence” value is “dose-dependent increase in VEGF protein”. In addition, the “level of activated Akt relative to HMEC incubated without peptide (Control)” value in assay [4] is on record as “much higher level of activated Akt”. Moreover, in assay [5], the “level of activation of Erk1 and 2 (MAPK) versus Control” value is “not significant variations in level of activation of Erk1 and 2”.
Turning to VSKDVCRL [Peptide 10], the “in vitro angiogenesis-inducing activity” value in assay [2] is “strong in vitro angiogenesis-inducing activity”. Further, in assay [1], the “wound healing compared with Vehicle treated wounds” value is given as “healed faster than the wounds treated with Vehicle”. The “level of activated Akt relative to HMEC incubated without peptide (Control)” value in assay [4] is given as “much higher level of activated Akt”. Besides, in assay [5], the “level of activation of Erk1 and 2 (MAPK) versus Control” value was “not significant variations in level of activation of Erk1 and 2”.
